Molecular target: human ghrelin receptor (hGHS-R1a) (Homo sapiens, UniProt Q92847)
Test: cell-based
Details: not given

Chain of human ghrelin receptor (hGHS-R1a) (Q92847 whole entry): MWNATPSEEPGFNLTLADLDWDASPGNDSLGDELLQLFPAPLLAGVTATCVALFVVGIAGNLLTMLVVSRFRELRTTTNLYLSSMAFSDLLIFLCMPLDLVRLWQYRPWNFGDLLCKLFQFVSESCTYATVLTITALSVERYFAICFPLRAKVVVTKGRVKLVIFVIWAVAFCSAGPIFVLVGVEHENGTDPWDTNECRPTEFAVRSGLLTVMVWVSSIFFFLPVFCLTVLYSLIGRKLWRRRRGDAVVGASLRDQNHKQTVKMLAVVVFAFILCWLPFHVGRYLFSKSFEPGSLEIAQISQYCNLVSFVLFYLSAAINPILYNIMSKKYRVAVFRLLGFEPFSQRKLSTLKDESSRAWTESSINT

| EC50 | SMILES |
| --- | --- |
| 100 to 1000 nM | CCC(C)C1NCCc2ccccc2CCCNC(=O)C(Cc2ccccc2)NC(=O)C(C)N(C)C1=O (stereo not drawn) [compound 214] |
| 100 to 1000 nM | CCC(C)C1NCc2ccccc2CCCCCNC(=O)C(Cc2ccccc2)NC(=O)C(C)N(C)C1=O (stereo not drawn) [compound 38] |
| 1 to 100 nM | CCC(C)C1NCCOc2ccccc2CCCNC(=O)C(Cc2ccc(-c3ccccc3)cc2)NC(=O)C(C)N(C)C1=O (stereo not drawn) [compound 28] |

| SMILES | EC50 |
| --- | --- |
| CCCC1NCCOc2ccccc2CCCNC(=O)C(Cc2ccc(O)cc2)NC(=O)CN(C)C1=O (stereo not drawn) [compound 7] | 1 to 100 nM |

Molecular target: T1, human growth hormone secretagogue receptor (hGHS-R1a) (Homo sapiens, UniProt Q92847)
T1 construct: purchased PerkinElmer BioSignal #RBHGHSM, lot#1887; host or cells: HEK-293, stably transfected
Test: Competitive radioligand binding assay (ghrelin receptor), [125I]-ghrelin displacement
Details: Table 3B; binding at human ghrelin receptor, [125I]-ghrelin displacement; read-out: Ki
Protocol: The competitive binding assay at the human growth hormone secretagogue receptor (hGHS-R1a) was carried out analogously to assays described in the literature.
Multiscreen Harvest plates-GF/C (Millipore, #MAHFC1H60) • 4. […] Bottom seal (Millipore, #MATAH0P00) • 7. […] Binding Buffer: 25 mM Hepes (pH 7.4), 1 mM CaCl2, 5 mM MgCl2, 2.5 mM EDTA, 0.4% BSA Assay Volumes
Competition experiments were performed in a 300 μl filtration assay format. • 1. 220 μL of membranes diluted in binding buffer • 2. 40 μL of compound diluted in binding buffer • 3. […] Compound Handling
Compounds were provided frozen on dry ice at a stock concentration of 10 mM diluted in 100% DMSO and stored at −80° C. until the day of testing. On the test day, compounds were allowed to thaw at rt O/N and then diluted in assay buffer according to the desired test concentrations.
Plates were sealed with TopSeal-A, vortexed gently and incubated at rt for 30 min. The reaction was arrested by filtering samples through Multiscreen Harvest plates (pre-soaked in 0.5% polyethyleneimine) using a Tomtec Harvester, washed 9 times with 500 μL of cold 50 mM Tris-HCl (pH 7.4, 4° C.), and then plates were air-dried in a fumehood for 30 min. A bottom seal was applied to the plates prior to the addition of 25 μL of MicroScint-0 to each well. […] Results were expressed as counts per minute (cpm).
Data were analyzed by GraphPad Prism (GraphPad Software, San Diego, Calif.) using a variable slope non-linear regression analysis.
Compound structures for Tables 3A, 3B and 3D are presented with the various groups as defined for the general structure of formula I. For Tables 3B and 3D, in all entries, m, n and p are 0; X, Z1 and Z2 are each NH. For Table 3B, R1 is H for all entries. The tethers (T) are illustrated with the bonding to X and Z2 as indicated. The compounds themselves are shown for Table 3C.
• 1. […] Key Aspects of Method • 1. […] Results

T1 sequence (Q92847 whole entry): as above

| Ki | SMILES |
| --- | --- |
| 100 to 10000 nM | CCC(C)C1NCCOc2ccccc2C2CC2CNC(=O)C(Cc2cccc(Cl)c2)NC(=O)C2(CCCC2)NC1=O (stereo not drawn) [compound 387] |
| 100 to 10000 nM | CCC(C)C1NCCCc2ccccc2C=CCCNC(=O)C(Cc2cccc(Cl)c2)NC(=O)C2(CCCC2)NC1=O (stereo not drawn) [compound 361] |
| 100 to 10000 nM | CCC(C)C1NCCOc2cc(F)ccc2CCCNC(=O)C(Cc2cccc(Cl)c2)NC(=O)C2(CCCC2)NC1=O (stereo not drawn) [compound 383] |
| 100 to 10000 nM | CCC(C)C1NCCOc2ccc(Cl)cc2CCCNC(=O)C(Cc2cccc(Cl)c2)NC(=O)C2(CCCC2)NC1=O (stereo not drawn) [compound 384] |
| < 100 nM | CCC(C)C1NCCOc2ccccc2C=CCNC(=O)C(Cc2cccc(C#N)c2)NC(=O)C2(CCCC2)NC1=O (stereo not drawn) [compound 329] |
| < 100 nM | CCC(C)C1NCCCc2ccccc2CCCCNC(=O)C(Cc2cccc(Cl)c2)NC(=O)C2(CCCC2)NC1=O (stereo not drawn) [compound 371] |
| 100 to 10000 nM | CCC(C)C1NCCOc2ccccc2C=CCNC(=O)C(Cc2ccsc2)NC(=O)C2(CCCC2)NC1=O (stereo not drawn) [compound 333] |
| 100 to 10000 nM | CCC(C)C1NCc2ccccc2CCCCCNC(=O)C(Cc2cccc(Cl)c2)NC(=O)C2(CCCC2)NC1=O (stereo not drawn) [compound 362] |
| 100 to 10000 nM | CCC(C)C1NCCOCCOCCNC(=O)C(Cc2cccc(Cl)c2)NC(=O)C2(CCCC2)NC1=O (stereo not drawn) [compound 393] |

Second part, the compound before the results:

| SMILES | Ki |
| --- | --- |
| CC1C(=O)NC(Cc2ccc(F)cc2)C(=O)NCCCCCOCCNC(C2CC2)C(=O)N1C (stereo not drawn) [compound 398] | 100 to 10000 nM |
| COc1ccc(CC2NC(=O)C(C)N(C)C(=O)C(C3CC3)NCCOc3ccccc3CCCNC2=O)cc1OC (stereo not drawn) [compound 323] | 100 to 10000 nM |
| CC1C(=O)NC(Cc2ccc(F)cc2)C(=O)NCC2CC2c2ccccc2OCCNC(C2CC2)C(=O)N1C (stereo not drawn) [compound 379] | < 100 nM |
| COC(C)C1NCCOc2ccccc2CCCNC(=O)C(Cc2ccc(F)cc2)NC(=O)C(C)N(C)C1=O (stereo not drawn) [compound 335] | < 100 nM |
| COCC1NCCOc2ccccc2C=CCNC(=O)C(Cc2cccc(Cl)c2)NC(=O)C2(CCCC2)NC1=O (stereo not drawn) [compound 344] | 100 to 10000 nM |
| CC1C(=O)NC(Cc2ccsc2)C(=O)NCCCc2ccccc2OCCNC(C2CC2)C(=O)N1C (stereo not drawn) [compound 310] | < 100 nM |
| O=C1NC2(CCCC2)C(=O)NC(Cc2cccc(Cl)c2)C(=O)NCC=Cc2ccccc2OCCNC1Cc1ccsc1 (stereo not drawn) [compound 341] | < 100 nM |
| O=C1NC2(CCCC2)C(=O)NC(Cc2cccc(Cl)c2)C(=O)NCC=Cc2ccccc2OCCNC1Cc1ccc(O)cc1 (stereo not drawn) [compound 301] | < 100 nM |
| CC1C(=O)NC(Cc2ccc(F)cc2)C(=O)NCCCc2cc(C(F)(F)F)ccc2OCCNC(C2CC2)C(=O)N1C (stereo not drawn) [compound 356] | 100 to 10000 nM |
| CCC(C)C1NCCCCCCCCNC(=O)C(Cc2cccc(Cl)c2)NC(=O)C2(CCCC2)NC1=O (stereo not drawn) [compound 363] | 100 to 10000 nM |
| CC1C(=O)NC(Cc2ccc(F)cc2)C(=O)NCCOc2cccc(c2)OCCNC(C2CC2)C(=O)N1C (stereo not drawn) [compound 377] | 100 to 10000 nM |

Same assay, conditions: Table 3D; binding at human ghrelin receptor, [125I]-ghrelin displacement; read-out: Ki

| Ki | SMILES |
| --- | --- |
| 100 to 10000 nM | CCC(C)C1NCCOc2ccccc2CCCNC(=O)C(Cc2ccc(F)cc2)NC(=O)C(COCc2ccccc2)N(C)C1=O (stereo not drawn) [compound 440] |
| 10 to 100 nM | CC1CNC(C2CC2)C(=O)N(C)C(C)C(=O)NC(Cc2ccccc2)C(=O)NCCCc2ccc(F)cc2O1 (stereo not drawn) [compound 435] |

Same assay, conditions: Table 3E; binding activity at the human ghrelin receptor, class symbols; read-out: Ki

| Ki | SMILES |
| --- | --- |
| 1000 to 10000 nM | CC(C)C[C@@H]1NCCOc2ccccc2CCCNC(=O)[C@H](Cc2ccccc2)NC(=O)[C@H]2CCCN2C1=O [compound 223] |

Same assay, conditions: Table 4; binding at human ghrelin receptor; TFA salts unless otherwise noted; read-out: Ki

| Ki | SMILES |
| --- | --- |
| 100 to 1000 nM | CCC(C)C1NCCc2ccccc2CCCNC(=O)C(Cc2ccccc2)NC(=O)C(C)N(C)C1=O (stereo not drawn) [compound 214] |
| 10 to 100 nM | CCC(C)C1NCc2ccccc2CCCCCNC(=O)C(Cc2ccccc2)NC(=O)C(C)N(C)C1=O (stereo not drawn) [compound 38] |
| 10 to 100 nM | CCC(C)C1NCCOc2ccccc2CCCNC(=O)C(Cc2ccc(-c3ccccc3)cc2)NC(=O)C(C)N(C)C1=O (stereo not drawn) [compound 28] |
| 100 to 1000 nM | CCC(C)C1NCCCCCCCCNC(=O)C(Cc2cccc(Cl)c2)NC(=O)C2(CCCC2)NC1=O (stereo not drawn) [compound 363] |

| SMILES | Ki |
| --- | --- |
| CCCC1NCCOc2ccccc2CCCNC(=O)C(Cc2ccc(O)cc2)NC(=O)CN(C)C1=O (stereo not drawn) [compound 7] | 100 to 1000 nM |

Same assay, conditions: [125I]-ghrelin displacement, hGHS-R1a HEK-293 membranes; read-out: Binding Activity at the Human Ghrelin Receptor (Ki)

| Ki | SMILES |
| --- | --- |
| 100 to 10000 nM | CCC(C)C1NCCc2ccccc2CCCNC(=O)C(Cc2ccccc2)NC(=O)C(C)N(C)C1=O (stereo not drawn) [compound 214] |
| 100 to 10000 nM | O=C1NC2(CCCC2)C(=O)NC(Cc2ccccc2)C(=O)NCC=Cc2ccccc2OCCNC1Cc1c[nH]cn1 (stereo not drawn) [compound 219] |
| > 10000 nM | CCC(C)C1NCCCc2c(c(=O)n(C)c(=O)n2C)CCCNC(=O)C(Cc2ccccc2)NC(=O)C(C)N(C)C1=O (stereo not drawn) [compound 206] |

Same assay, conditions: binding activity at the human ghrelin receptor; [125I]-ghrelin displacement, hGHS-R1a/HEK-293 membranes; read-out: Ki

| Ki | SMILES |
| --- | --- |
| > 10000 nM | CC(C)CC1NCCOc2ccccc2CCCNC(=O)C(C)NC(=O)C2(CCCC2)NC1=O (stereo not drawn) [compound 87] |
| 1000 to 10000 nM | CCOC(=O)CCC1NC(=O)C2(CCCC2)NC(=O)C(CC(C)C)NCCOc2ccccc2C=CCNC1=O (stereo not drawn) [compound 116] |
| > 10000 nM | CCCC1NCCOc2ccccc2CCCNC(=O)C(CO)NC(=O)CN(C)C1=O (stereo not drawn) [compound 54] |
| 1000 to 10000 nM | CC(C)CC1NCCOc2cccnc2CCCNC(=O)C(Cc2ccccc2)NC(=O)C2(CCCC2)NC1=O (stereo not drawn) [compound 109] |
| > 10000 nM | CC(C)CC1NCc2cccc(c2)CCNC(=O)C(Cc2ccccc2)NC(=O)C2(CCCC2)NC1=O (stereo not drawn) [compound 107] |
| > 1000 nM | CC(C)CC1NCCOc2ccccc2C=CCNC(=O)C(C(c2ccccc2)c2ccccc2)NC(=O)C2(CCCC2)NC1=O (stereo not drawn) [compound 158] |
| 10 to 100 nM | CC(C)CC1NCCOc2ccccc2C=CCNC(=O)C(Cc2cccc3ccccc23)NC(=O)C2(CCCC2)NC1=O (stereo not drawn) [compound 22] |
| > 10000 nM | CC(C)CC1NCCOc2ccccc2C=CCNC(=O)C(Cc2cscn2)NC(=O)C2(CCCC2)NC1=O (stereo not drawn) [compound 163] |

Continued, compound first:

| SMILES | Ki |
| --- | --- |
| CCCC1NCCOc2ccccc2CCCNC(=O)C(Cc2ccc(O)cc2)NC(=O)CN(C)C1=O (stereo not drawn) [compound 7] | 100 to 10000 nM |
| CCC(C)C1NCc2ccccc2CCCCCNC(=O)C(Cc2ccccc2)NC(=O)C(C)N(C)C1=O (stereo not drawn) [compound 38] | 10 to 100 nM |
| CCC(C)C1NCCOc2ccccc2CCCNC(=O)C(Cc2ccc(-c3ccccc3)cc2)NC(=O)C(C)N(C)C1=O (stereo not drawn) [compound 28] | 10 to 100 nM |
| CCCC1NCc2ccccc2Sc2ccccc2CNC(=O)C(Cc2ccccc2)NC(=O)CN(C)C1=O (stereo not drawn) [compound 77] | 100 to 10000 nM |
| CCCCC1NC(=O)C(CCCC)NC(=O)C(C(C)C)NCCOc2ccccc2C=CCNC1=O (stereo not drawn) [compound 12] | 100 to 10000 nM |
| CCC(C)C1NCCCCC=CCNC(=O)C(Cc2ccccc2)NC(=O)C(C)N(C)C1=O (stereo not drawn) [compound 181] | > 10000 nM |
| CCC(C)C1NCCOc2ccccc2CCCNC(=O)C(C(c2ccccc2)c2ccccc2)NC(=O)C(C)N(C)C1=O (stereo not drawn) [compound 29] | 10 to 100 nM |
| CCC(C)C1NCCCc2ccccc2CCNC(=O)C(Cc2ccccc2)NC(=O)C(C)N(C)C1=O (stereo not drawn) [compound 179] | 100 to 10000 nM |
| CCC(C)C1NCCOc2ccccc2CCCNC(=O)C(Cc2cscn2)NC(=O)C(C)N(C)C1=O (stereo not drawn) [compound 33] | 100 to 10000 nM |
| CCC(C)C1NCCOc2ccccc2CCCNC(=O)C(Cc2ccccc2)NC(=O)C(C(C)CC)N(C)C1=O (single isomer, unassigned) [150b] | > 10000 nM |
| CCCC1NCCOc2ccccc2CCCNC(=O)C(Cc2ccccc2)NC(=O)C(Cc2ccccc2)NC1=O (stereo not drawn) [compound 65] | 1000 to 10000 nM |
| CCCC1NCCOc2ccccc2CCCNC(=O)C(Cc2ccccc2)NC(=O)C(CCC(=O)O)NC1=O (stereo not drawn) [compound 71] | > 10000 nM |
| CCCC1NCCOc2ccccc2CCCNC(=O)C(Cc2ccccc2)NC(=O)C(CCC(=O)O)NC1=O (stereo not drawn) [compound 70] | > 10000 nM |
| CCC(C)C1NCCc2ccccc2C=CCNC(=O)C(Cc2ccccc2)NC(=O)C(C)N(C)C1=O (stereo not drawn) [compound 187] | 100 to 10000 nM |
| CN1CC(=O)NC(Cc2ccccc2)C(=O)NCCCc2ccccc2OCCNC(Cc2ccccc2)C1=O (stereo not drawn) [compound 75] | 100 to 10000 nM |
| CCCC1NCC2CCC(CNC(=O)C(Cc3ccccc3)NC(=O)CN(C)C1=O)O2 (stereo not drawn) [compound 78] | > 10000 nM |
| O=C1NC2(CCCC2)C(=O)NC(Cc2ccccc2)C(=O)NCC=Cc2ccccc2OCCNC1Cc1ccc2ccccc2c1 (stereo not drawn) [compound 131] | 100 to 10000 nM |

Source: patent USRE42013E1, “Macrocyclic modulators of the ghrelin receptor” (Tranzyme Pharma Inc., priority 2003, dated 2010)
